Experimental data: patent US20240252506A1 (Hoffmann-La Roche Inc., priority 2021, published 2024)
In brackets after ≈: the same amount, converted by molar mass.

System: Escherichia coli ATCC 25922
Test: Minimal Inhibitory Concentration (MIC) determination, broth microdilution (CLSI M07-A10)
Assay type: cell-based
Settings: Escherichia coli, ATCC25922, strain Escherichia coli ATCC 25922, 18-24 hours at 35±2° C., lowest concentration for complete growth inhibition (no visible growth), read-out: Escherichia coli growth inhibition MIC
Method in brief: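 MIC read visually as the lowest concentration with complete growth inhibition after 18-24 h at 35±2° C, ambient air. Method follows CLSI M07-A10 broth microdilution, two-fold compound series, inoculum standardized to 0.5 McFarland then diluted 1:200.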

| Structure (SMILES) | MIC [µg/mL] |
| --- | --- |
| Cn1c([C@@H]2C[C@@H](O)CN2)nc2c(F)c3c(c(F)c21)CC(CN1CCC2(CC1)CN(c1cnc4c(n1)NC(=O)CO4)C(=O)O2)C3.O=C(O)C(F)(F)F (stereo partly drawn) [Example 55, 6-[8-[[4,8-difluoro-2-[(2S,4R)-4-hydroxypyrrolidin-2-yl]-1-methyl-6,7-dihydro-5H-cyclopenta[f]benzimidazol-6-yl]methyl]-2-oxo-1-oxa-3,8-diazaspiro[4.5]decan-3-yl]-4H-pyrazino[2,3-b][1,4]oxazin-3-one; 2,2,2-trifluoroacetic acid] | 0.25 |
| CN[C@H](CO)c1nc2c(F)c3c(c(F)c2[nH]1)CC(CN1CCC2(CC1)CN(c1cnc4c(n1)NC(=O)CO4)C(=O)O2)C3.O=C(O)C(F)(F)F [Example 56, 6-[8-[[4,8-difluoro-2-[(1S)-2-hydroxy-1-(methylamino)ethyl]-3,5,6,7-tetrahydrocyclopenta[f]benzimidaozl-6-yl]methyl]-2-oxo-1-oxa-3,8-diazaspiro[4.5]decan-3-yl]-4H-pyrazino[2,3-b][1,4]oxazin-3-one; 2,2,2-trifluoroacetic acid] | 0.25 |
| CN[C@H](CO)Cc1nc2c(F)c3c(c(F)c2[nH]1)CC(CN1CCC2(CC1)CN(c1cnc4c(n1)NC(=O)CO4)C(=O)O2)C3 [Example 57, 6-[8-[[4,8-difluoro-2-[(2S)-3-hydroxy-2-(methylamino)propyl]-3,5,6,7-tetrahydrocyclopenta[f]benzimidazol-6-yl]methyl]-2-oxo-1-oxa-3,8-diazaspiro[4.5]decan-3-yl]-4H-pyrazino[2,3-b][1,4]oxazin-3-one] | 0.5 (≈ 0.835 µM) |
| CN1C[C@H](O)C[C@H]1c1nc2c(F)c3c(c(F)c2[nH]1)CC(CN1CCC2(CC1)CN(c1cnc4c(n1)NC(=O)CO4)C(=O)O2)C3 [Example 58, 6-[8-[[4,8-Difluoro-2-[(2S,4R)-4-hydroxy-1-methyl-pyrrolidin-2-yl]-3,5,6,7-tetrahydrocyclopenta[f]benzimidazol-6-yl]methyl]-2-oxo-1-oxa-3,8-diazaspiro[4.5]decan-3-yl]-4H-pyrazino[2,3-b][1,4]oxazin-3-one] | 1 (≈ 1.64 µM) |
| CNCC(=O)NCCn1nnc2c(F)c3c(c(F)c21)CC(CN1CCC2(CC1)CN(c1cnc4c(n1)NC(=O)CO4)C(=O)O2)C3 (stereo not shown) [Example 61, N-[2-[4,8-Difluoro-6-[[2-oxo-3-(3-oxo-4H-pyrazino[2,3-b][1,4]oxazin-6-yl)-1-oxa-3,8-diazaspiro[4.5]decan-8-yl]methyl]-6,7-dihydro-5H-cyclopenta[f]benzotriazol-1-yl]ethyl]-2-(methylamino)acetamide] | 0.5 (≈ 0.798 µM) |
| CN(C)CCc1nc2cc3c(c(F)c2o1)CC(CN1CCC2(CC1)CN(c1cnc4c(n1)NC(=O)CO4)C(=O)O2)C3 (stereo not shown) [Example 62, 6-[8-[[2-[2-(Dimethylamino)ethyl]-8-fluoro-6,7-dihydro-5H-cyclopenta[f][1,3]benzoxazol-6-yl]methyl]-2-oxo-1-oxa-3,8-diazaspiro[4.5]decan-3-yl]-4H-pyrazino[2,3-b][1,4]oxazin-3-one] | 0.25 (≈ 0.442 µM) |
| CN(C)[C@H](CO)Cc1nc2c(F)c3c(c(F)c2[nH]1)CC(CN1CCC2(CC1)CN(c1cnc4c(n1)NC(=O)CO4)C(=O)O2)C3 [Example 63, 6-[8-[[2-[(2S)-2-(Dimethylamino)-3-hydroxy-propyl]-4,8-difluoro-3,5,6,7-tetrahydrocyclopenta[f]benzimidazol-6-yl]methyl]-2-oxo-1-oxa-3,8-diazaspiro[4.5]decan-3-yl]-4H-pyrazino[2,3-b][1,4]oxazin-3-one] | 0.25 (≈ 0.408 µM) |
| CN(C)CCn1nnc2c(F)c3c(c(F)c21)CC(CN1CCC2(CC1)CN(c1cnc4c(n1)NC(=O)CO4)C(=O)O2)C3 (stereo not shown) [Example 64, 6-[8-[[1-[2-(Dimethylamino)ethyl]-4,8-difluoro-6,7-dihydro-5H-cyclopenta[f]benzotriazol-6-yl]methyl]-2-oxo-1-oxa-3,8-diazaspiro[4.5]decan-3-yl]-4H-pyrazino[2,3-b][1,4]oxazin-3-one] | 0.25 (≈ 0.428 µM) |
| CN(C)CCn1nnc2c(F)c3c(cc21)CC(CN1CCC2(CC1)CN(c1cnc4c(n1)NC(=O)CO4)C(=O)O2)C3 (stereo not shown) [Example 65, 6-[8-[[3-[2-(Dimethylamino)ethyl]-8-fluoro-6,7-dihydro-5H-cyclopenta[f]benzotriazol-6-yl]methyl]-2-oxo-1-oxa-3,8-diazaspiro[4.5]decan-3-yl]-4H-pyrazino[2,3-b][1,4]oxazin-3-one] | 0.125 (≈ 0.221 µM) |
| C[C@@H](N)c1nc2c(F)c3c(c(F)c2n1C)CC(CN1CCC2(CC1)CN(c1cnc4c(n1)NC(=O)CO4)C(=O)O2)C3 (stereo partly drawn) [Example 68, 6-[8-[[2-[(1R)-1-aminoethyl]-4,8-difluoro-1-methyl-6,7-dihydro-5H-cyclopenta[f]benzimidazol-6-yl]methyl]-2-oxo-1-oxa-3,8-diazaspiro[4.5]decan-3-yl]-4H-pyrazino[2,3-b][1,4]oxazin-3-one] | 0.125 (≈ 0.22 µM) |
| CNCCc1nc2cc3c(c(F)c2[nH]1)CC(CN1CCC2(CC1)CN(c1cnc4c(n1)NC(=O)CO4)C(=O)O2)C3 (stereo not shown) [Example 69, 6-[8-[[8-fluoro-2-[2-(methylamino)ethyl]-1,5,6,7-tetrahydrocyclopenta[f]benzimidazol-6-yl]methyl]-2-oxo-1-oxa-3,8-diazaspiro[4.5]decan-3-yl]-4H-pyrazinio[2,3-b][1,4]oxazin-3-one] | 0.25 (≈ 0.454 µM) |
| COCCNCc1nc2c(F)c3c(cc2[nH]1)CC(CN1CCC2(CC1)CN(c1cnc4c(n1)NC(=O)CO4)C(=O)O2)C3 (stereo not shown) [Example 70, 6-[8-[[8-fluoro-2-[(2-methoxyethylamino)methyl]-3,5,6,7-tetrahydrocyclopenta[f]benzimidazol-6-yl]methyl]-2-oxo-1-oxa-3,8-diazaspiro[4.5]decan-3-yl]-4H-pyrazino[2,3-b][1,4]oxazin-3-one] | 0.25 (≈ 0.431 µM) |
| CNC(=O)CNCc1nc2c(F)c3c(cc2[nH]1)CC(CN1CCC2(CC1)CN(c1cnc4c(n1)NC(=O)CO4)C(=O)O2)C3 (stereo not shown) [Example 71, 2-[[8-fluoro-6-[[2-oxo-3-(3-oxo-4H-pyrazino[2,3-b][1,4]oxazin-6-yl)-1-oxa-3,8-diazaspiro[4.5]decan-8-yl]methyl]-3,5,6,7-tetrahydrocyclopenta[f]benzimidazol-2-yl]methylamino]-N-methyl-acetamide] | 1 (≈ 1.68 µM) |
| Cc1nc2c(F)c3c(cc2n1CCN)CC(CN1CCC2(CC1)CN(c1cnc4c(n1)NC(=O)CO4)C(=O)O2)C3 (stereo not shown) [Example 73, 6-[8-[[3-(2-Aminoethyl)-8-fluoro-2-methyl-6,7-dihydro-5H-cyclopenta[f]benzimidazol-6-yl]methyl]-2-oxo-1-oxa-3,8-diazaspiro[4.5]decan-3-yl]-4H-pyrazino[2,3-b][1,4]oxain-3-one] | 2 (≈ 3.63 µM) |
| NCCn1nc2cc3c(c(F)c2n1)CC(CN1CCC2(CC1)CN(c1cnc4c(n1)NC(=O)CO4)C(=O)O2)C3 (stereo not shown) [Example 74, 6-[8-[[2-(2-aminoethyl)-8-fluoro-6,7-dihydro-5H-cyclopenta[f]benzotriazol-6-yl]methyl]-2-oxo-1-oxa-3,8-diazaspiro[4.5]decan-3-yl]-4H-pyrazino[2,3-b][1,4]oxazin-3-one] | 0.06 (≈ 0.112 µM) |
| NCCn1nnc2c(F)c3c(cc21)CC(CN1CCC2(CC1)CN(c1cnc4c(n1)NC(=O)CO4)C(=O)O2)C3 (stereo not shown) [Example 75, 6-[8-[[3-(2-aminoethyl)-8-fluoro-6,7-dihydro-5H-cyclopenta[f]benzotriazol-6-yl]methyl]-2-oxo-1-oxa-3,8-diazaspiro[4.5]decan-3-yl]-4H-pyrazino[2,3-b][1,4]oxazin-3-one] | ≤ 0.06 |
| NCCn1nnc2cc3c(c(F)c21)CC(CN1CCC2(CC1)CN(c1cnc4c(n1)NC(=O)CO4)C(=O)O2)C3 (stereo not shown) [Example 76, 6-[8-[[1-(2-aminoethyl)-8-fluoro-6,7-dihydro-5H-cyclopenta[f]benzotriazol-6-yl]methyl]-2-oxo-1-oxa-3,8-diazaspiro[4.5]decan-3-yl]-4H-pyrazino[2,3-b][1,4]oxazin-3-one] | 0.125 (≈ 0.233 µM) |
| NC1(Cn2nc3c(F)c4c(c(F)c3n2)CC(CN2CCC3(CC2)CN(c2cnc5c(n2)NC(=O)CO5)C(=O)O3)C4)CC1.O=C(O)C(F)(F)F [Example 77, 6-[8-[[2-[(1-aminocyclopropyl)methyl]-4,8-difluoro-6,7-dihydro-5H-cyclopenta[f]benzotriazol-6-yl]methyl]-2-oxo-1-oxa-3,8-diazaspiro[4.5]decan-3-yl]-4H-pyrazino[2,3-b][1,4]oxazin-3-one; 2,2,2-trifluoroacetic acid] | 0.25 |
| NC1(Cn2nnc3c(F)c4c(c(F)c32)CC(CN2CCC3(CC2)CN(c2cnc5c(n2)NC(=O)CO5)C(=O)O3)C4)CC1 (stereo not shown) [Example 78, 6-[8-[[1-[(1-aminocyclopropyl)methyl]-4,8-difluoro-6,7-dihydro-5H-cyclopenta[f]benzotriazol-6-yl]methyl]-2-oxo-1-oxa-3,8-diazaspiro[4.5]decan-3-yl]-4H-pyrazino[2,3-b][1,4]oxazin-3-one] | 0.25 (≈ 0.43 µM) |
| O=C1COc2ncc(N3CC4(CCN(CC5Cc6c(c(F)c7nn(C8CNC8)nc7c6F)C5)CC4)OC3=O)nc2N1.O=CO [Example 79, 6-[8-[[2-(azetidin-3-yl)-4,8-difluoro-6,7-dihydro-5H-cyclopenta[f]benzotriazol-6-yl]methyl]-2-oxo-1-oxa-3,8-diazaspiro[4.5]decan-3-yl]-4H-pyrazino[2,3-b][1,4]oxazin-3-one; formic acid] | 0.125 |
| O=C1COc2ncc(N3CC4(CCN(CC5Cc6c(c(F)c7c(nnn7C7CNC7)c6F)C5)CC4)OC3=O)nc2N1 (stereo not shown) [Example 80, 6-[8-[[1-(azetidin-3-yl)-4,8-difluoro-6,7-dihydro-5H-cyclopenta[f]benzotriazol-6-yl]methyl]-2-oxo-1-oxa-3,8-diazaspiro[4.5]decan-3-yl]-4H-pyrazino[2,3-b][1,4]oxazin-3-one] | 0.125 (≈ 0.22 µM) |
| NCCn1nc2cc(F)c3c(c2n1)CC(CN1CCC2(CC1)CN(c1cnc4c(n1)NC(=O)CO4)C(=O)O2)C3.O=C(O)C(F)(F)F (stereo not shown) [Example 83, 6-[8-[[2-(2-aminoethyl)-5-fluoro-7,8-dihydro-6H-cyclopenta[e]benzotriazol-7-yl]methyl]-2-oxo-1-oxa-3,8-diazaspiro[4.5]decan-3-yl]-4H-pyrazino[2,3-b][1,4]oxazin-3-one; 2,2,2-trifluoroacetic acid] | ≤ 0.06 |
